{"source": "paper PMC4351204", "about": "“Amyloid Precursor Protein Mediated Changes in Intestinal Epithelial Phenotype In Vitro” (PLoS ONE, 2015)", "key": {"HepG2 hepatocyte line": {"tested_on": "HepG2 hepatocyte line", "design": "method as in PMID 8898096", "conditions": "Aβ 1–40 treatment of human HepG2 hepatocyte line; cited from earlier work"}, "Caco-2 cells [1]": {"tested_on": "Caco-2 cells", "assay": "Western blotting of protein levels in stimulated Caco-2 cells", "assay_type": "cell-based, human", "conditions": "western blot, 3 samples", "procedure": "Following stimulation, cells were lysed using ice cold radioimmunoprecipitation assay (RIPA) buffer (20mM Tris, pH 7.4, 150mM NaCl, 1mM Na3VO4, 10mM NaF, 1mM EDTA, 1mM EGTA, 0.2mM phenylmethylsulfonyl fluoride, 1% Triton, 0.1% SDS, and 0.5% deoxycholate) with protease inhibitors (AEBSF 1mM, Aprotinin 0.8μM, Leupeptin 21μM, Bestatin 36μM, Pepstatin A 15μM, E-64 14μM) and 50U/mL DNAse1(Amresco Inc, Solon, OH, USA). To remove insoluble material cell lysates were sonicated and centrifuged (14,000 rpm, 4°C, 10 min). The Bradford method was used to quantify protein concentrations. Proteins were resolved by 7 or 10% sodium dodecyl sulfate-polyacrylamide gel electrophoresis (SDS-PAGE) and transferred to polyvinylidene difluoride membranes (PVDF) for western blotting using anti-APP (Y188), CD36, occludin, LFABP, FATP4, pSrc, cSrc, and GAPDH (loading control) antibodies. Antibody binding was detected with enhanced chemiluminescence (GE Healthcare, Piscataway, NJ). In some instances, blots were stripped in […], 10 min, 25°C, for reprobing. Western blots were quantified using Adobe Photoshop software. Optical densities of bands were normalized against their respective loading controls and averaged (+/-SD).\nFig 5 Aβ, APP, and CD36 stimulations selectively altered protein levels in Caco-2 cells."}, "Caco-2 cells [2]": {"tested_on": "Caco-2 cells", "assay": "Cytokine ELISAs (IL-8, MCP-1, MDC, IL-6, TNFα) of media from stimulated Caco-2 cells", "assay_type": "cell-based, human", "conditions": "ELISA of media, normalized to protein, 6 samples"}, "Caco-2 cells [3]": {"tested_on": "Caco-2 cells", "assay": "Cholesterol Uptake Cell-Based Assay (NBD Cholesterol)", "design": "species or system human", "conditions": "40 min; for Cholesterol uptake: 8 samples", "procedure": "Cholesterol was measured following the protocol provided in the Cholesterol Uptake Cell-Based Assay Kit from Cayman Chemical Company (Ann Arbor, Michigan USA). […] At the end of treatment, the plates were aspirated and cell-based assay buffer was added to each well and NBD Cholesterol uptake was quantified using a fluorescent plate reader (480 nm excitation and 520 nm emission).\nFig 4 Aβ and 22C11 agonist decreased cholesterol uptake whereas the sAPP-derived peptide and SM-ϕ stimulated increased cholesterol uptake by Caco-2 cells. […] Representative data from 3 independent experiments are shown."}, "Caco-2 cells [4]": {"tested_on": "Caco-2 cells", "assay": "Aβ uptake assay with FITC labeled Aβ 1–40", "assay_type": "in vitro ADME, human", "procedure": "FITC labeled Aβ 1–40 was prepared according to the manufacturer’s protocol (rPeptide, Bogart, GA, USA). 500nM of the peptide was added to confluent cells in serum free DMEM/F12 for 4 hours in the absence or presence of 10ng/mL LPS. The media was then removed and extracellular peptide signal was quenched by rinsing cells with 0.25% trypan blue dissolved in PBS. The trypan blue incubation served to quench FITC-Aβ signal from any peptide that was associated with the extracellular plasma membrane surface or with the tissue culture plastic of the wells. Intracellular Aβ signal was then quantified using a fluorescent plate reader (480 nm excitation and 520 nm emission).\n(§1) Fig 2 Caco-2 cells secreted and took up Aβ. […] The cells were rinsed with trypan blue to quench extracellular signal from FITC-Aβ on the cell surface or surface of the tissue culture dish and intracellular Aβ fluorescence was measured with a fluorescent plate reader (480 nm excitation and 520 nm emission) (B)."}, "Caco-2 cells [5]": {"tested_on": "Caco-2 cells", "assay": "Aβ 1–40 and Aβ 1–42 ELISA of media from stimulated Caco-2 cells (Aβ secretion)", "assay_type": "cell-based, human", "conditions": "overnight stimulation in serum free DMEM/F12; 10ng/mL LPS or 1μg/mL 22C11; 3 experiments in a replicate of 8", "procedure": "Caco-2 cells were purchased from ATCC (Manassas, VA, USA). These are an epithelial-like cell line derived from a colorectal adenocarcinoma from a person. Caco-2 cells were maintained in DMEM/F12 (Gibco, Life Technologies, Grand Island, NY, USA) supplemented with 10% heat inactivated fetal bovine serum (FBS), 5% donor horse serum (Serum Source International, Charlotte, NC, USA) and antibiotics (0.05mg penicillin/0.05mg streptomycin/0.01mg neomycin/mL) (Sigma-Aldrich, St. Louis, MO, USA). Caco-2 cells were plated and allowed to grow to confluency before removing supplemented media and replacing with serum free DMEM/F12 with or without treatments. Following stimulation, Caco-2 cells were used for ELISA, Aβ uptake, cholesterol assays, immunoprecipitation, and western blot analysis.\nThe cells were lysed using ice cold RIPA buffer with protease inhibitors and 50U/mL DNAse1. […] The Bradford method was used to quantify protein concentrations for normalization of Aβ in the media and lysates were used for western blotting.\nas §1"}, "[6]": {"design": "method as in PMID 12897403", "conditions": "in vivo, iv; cited from earlier work"}}}
{"substance": "Aβ 1–40: amyloid β 1–40 peptide purchased from rPeptide", "values": [{"measurement": "steady state levels of intracellular cholesterol, cholesterol esters, phospholipids, and triacylglycerol", "setting": "HepG2 hepatocyte line", "value": "attenuate"}, {"measurement": "protein levels of other proteins examined (besides occludin)", "setting": "Caco-2 cells [1]; 1μM Aβ 1–40 overnight, compared to control untreated cells", "value": "no effect"}, {"measurement": "occludin protein levels", "setting": "Caco-2 cells [1]; overnight stimulation, 1μg/mL antibody or 1μM Aβ 1–40", "value": "decreased"}, {"measurement": "IL-6 cytokine secretion", "setting": "Caco-2 cells [2]; 1μM Aβ 1–40, 24h", "value": "increased"}, {"measurement": "Cholesterol uptake", "setting": "Caco-2 cells [3]; 100nM, 1μM and 5μM Aβ 1–40 (all three concentrations), 20μg/ml NBD Cholesterol", "value": "decreased"}, {"measurement": "Cholesterol uptake, concentration comparison", "setting": "Caco-2 cells [3]; 1μM Aβ 1–40 compared with 100nM and 5μM", "value": "most dramatic effect"}]}
{"substance": "fluorescently labeled Aβ 1–40: FITC labeled Aβ 1–40 prepared according to the manufacturer's protocol (rPeptide)", "values": [{"measurement": "Uptake of fluorescently labeled Aβ 1–40 into cells (intracellular fluorescence)", "setting": "Caco-2 cells [4]; 500nM FITC Aβ 1–40, 4 hr, confluent Caco-2, serum free DMEM/F12, extracellular signal quenched with 0.25% trypan blue, fluorescent plate reader 480/520 nm, 3 experiments in a replicate of 8", "value": "could take up Aβ peptide"}]}
{"substance": "lipopolysaccharide [LPS]", "values": [{"measurement": "Effect on uptake of FITC Aβ 1–40 by Caco-2 cells", "setting": "Caco-2 cells [4]; 10ng/mL LPS present with 500nM FITC Aβ 1–40, 4 hr", "value": "not affected"}, {"measurement": "Aβ secretion (Aβ 1–40 and Aβ 1–42 ELISA)", "setting": "Caco-2 cells [5]", "value": "higher concentrations of Aβ 1–40 compared to Aβ 1–42 released"}, {"measurement": "IL-8 cytokine secretion", "setting": "Caco-2 cells [2]; 10ng/mL LPS, 24h", "value": "increased"}, {"measurement": "TNFα cytokine secretion", "setting": "Caco-2 cells [2]; 10ng/mL LPS, 24h", "value": "increased"}, {"measurement": "Cholesterol uptake", "setting": "Caco-2 cells [3]; 10ng/mL LPS, 20μg/ml NBD Cholesterol in glucose free HBSS", "value": "increased"}]}
{"substance": "radiolabeled Aβ 1–40: radiolabeled Aβ 1–40 associated with chylomicron-like particles, literature study", "values": [{"measurement": "transport into organs", "setting": "[6]", "value": "can be transported into diverse organs including adipose tissue and brain"}]}
